Source: US8937088B2, “Ureas for the treatment and prevention of cancer” (Astar Biotech LLC, priority 2011, dated 2015)
Where two headings read alike, the source gives them in different places.

Assays:
BRAF = BRAF (Homo sapiens, UniProt P15056); test: In vitro kinase assay (Invitrogen SelectScreen Profiling Service), BRAF; format: biochemical
Procedure: (§1) Biological Test 1. In Vitro Kinase Assay for BRAF, FLT3 and KDR(VEGFR2) The inhibitory activities of the compounds of the invention were measured by Invitrogen's SelectScreen® Profiling Service.

FLT3 = target: T1, FLT3 (Homo sapiens, UniProt P36888); test: In vitro kinase assay (Invitrogen SelectScreen Profiling Service), FLT3; format: biochemical; conditions: FLT3, 0.1 μM
T1 sequence (P36888 27-993): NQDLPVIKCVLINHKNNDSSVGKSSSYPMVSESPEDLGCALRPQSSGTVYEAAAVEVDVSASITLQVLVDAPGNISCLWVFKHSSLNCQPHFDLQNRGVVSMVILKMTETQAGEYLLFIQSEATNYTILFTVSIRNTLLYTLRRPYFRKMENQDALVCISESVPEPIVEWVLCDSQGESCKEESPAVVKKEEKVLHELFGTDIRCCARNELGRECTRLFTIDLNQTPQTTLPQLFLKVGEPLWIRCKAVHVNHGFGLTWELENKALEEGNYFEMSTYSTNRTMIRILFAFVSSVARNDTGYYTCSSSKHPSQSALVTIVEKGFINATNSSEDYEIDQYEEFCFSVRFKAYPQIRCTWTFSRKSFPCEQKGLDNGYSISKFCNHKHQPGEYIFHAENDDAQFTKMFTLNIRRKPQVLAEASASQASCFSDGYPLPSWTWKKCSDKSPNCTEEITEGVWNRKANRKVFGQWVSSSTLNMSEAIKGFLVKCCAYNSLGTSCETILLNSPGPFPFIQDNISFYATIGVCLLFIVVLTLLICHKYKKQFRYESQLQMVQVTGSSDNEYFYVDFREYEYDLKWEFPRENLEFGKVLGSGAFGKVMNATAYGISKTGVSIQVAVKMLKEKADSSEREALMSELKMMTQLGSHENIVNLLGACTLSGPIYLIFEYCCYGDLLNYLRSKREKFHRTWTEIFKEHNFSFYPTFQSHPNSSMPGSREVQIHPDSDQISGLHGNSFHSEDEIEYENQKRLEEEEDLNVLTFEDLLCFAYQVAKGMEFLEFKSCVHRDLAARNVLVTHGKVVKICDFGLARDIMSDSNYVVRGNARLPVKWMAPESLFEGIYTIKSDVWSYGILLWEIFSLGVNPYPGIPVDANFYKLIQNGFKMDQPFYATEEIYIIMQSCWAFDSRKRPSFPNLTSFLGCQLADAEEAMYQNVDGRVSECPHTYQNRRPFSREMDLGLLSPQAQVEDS
Procedure: as §1

KDR(VEGFR2) = KDR(VEGFR2) (Homo sapiens, UniProt P35968); test: In vitro kinase assay (Invitrogen SelectScreen Profiling Service), KDR; format: biochemical
Sequence of KDR(VEGFR2) (P35968 20-1356): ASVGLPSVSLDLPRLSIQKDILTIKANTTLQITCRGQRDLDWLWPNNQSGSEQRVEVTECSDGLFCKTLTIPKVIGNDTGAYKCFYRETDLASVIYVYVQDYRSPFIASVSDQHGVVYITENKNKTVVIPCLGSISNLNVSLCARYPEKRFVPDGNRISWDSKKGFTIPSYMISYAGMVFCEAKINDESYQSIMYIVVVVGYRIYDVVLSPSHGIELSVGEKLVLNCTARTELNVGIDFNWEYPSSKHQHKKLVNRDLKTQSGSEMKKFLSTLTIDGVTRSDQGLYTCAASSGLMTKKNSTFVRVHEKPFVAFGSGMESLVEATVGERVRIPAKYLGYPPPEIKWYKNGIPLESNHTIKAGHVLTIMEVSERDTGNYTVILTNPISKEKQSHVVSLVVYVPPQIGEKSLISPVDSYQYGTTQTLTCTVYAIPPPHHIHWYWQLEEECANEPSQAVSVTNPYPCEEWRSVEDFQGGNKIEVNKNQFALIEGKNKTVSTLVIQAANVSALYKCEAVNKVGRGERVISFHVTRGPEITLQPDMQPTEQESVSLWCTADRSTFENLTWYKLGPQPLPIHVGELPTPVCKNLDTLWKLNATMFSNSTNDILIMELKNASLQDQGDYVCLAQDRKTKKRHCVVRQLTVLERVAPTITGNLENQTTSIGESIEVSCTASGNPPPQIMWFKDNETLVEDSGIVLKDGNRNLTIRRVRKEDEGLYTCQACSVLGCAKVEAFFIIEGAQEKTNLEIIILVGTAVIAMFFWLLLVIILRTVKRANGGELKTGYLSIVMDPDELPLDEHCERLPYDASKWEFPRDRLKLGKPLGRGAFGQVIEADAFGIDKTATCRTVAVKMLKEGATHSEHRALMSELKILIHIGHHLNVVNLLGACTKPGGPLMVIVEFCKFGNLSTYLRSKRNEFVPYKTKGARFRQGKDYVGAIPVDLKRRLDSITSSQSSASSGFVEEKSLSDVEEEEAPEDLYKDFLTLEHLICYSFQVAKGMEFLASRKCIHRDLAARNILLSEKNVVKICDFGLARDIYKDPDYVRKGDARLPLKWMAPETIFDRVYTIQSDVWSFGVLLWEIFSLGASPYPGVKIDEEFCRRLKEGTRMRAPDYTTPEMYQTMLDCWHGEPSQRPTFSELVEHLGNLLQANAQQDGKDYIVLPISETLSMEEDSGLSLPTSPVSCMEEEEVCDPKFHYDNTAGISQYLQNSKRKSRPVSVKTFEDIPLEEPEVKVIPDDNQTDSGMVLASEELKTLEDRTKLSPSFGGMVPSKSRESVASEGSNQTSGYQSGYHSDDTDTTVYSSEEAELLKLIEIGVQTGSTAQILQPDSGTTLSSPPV
Procedure: as §1

[1] = tested on: Hep3B (human hepatoma cell line); test: Cell death detection, trypan blue exclusion assay, Hep3B; format: cell-based; conditions: 5-day treatment
Procedure: (§2) Biological Test 2. Cell Death Detection Using Trypan Blue Exclusion Assay.
(§3) After drug treatment, cells were harvested by trypsinization with trypsin/EDTA for 10 min at 37° C. As some apoptotic cells detached from the culture substratum into the medium, these cells were also collected by centrifugation of the medium at 1,200 rpm for 5 min. The pooled cell pellets were resuspended and mixed with trypan blue dye. After Trypan blue stain was done, cells were counted by using a light microscope and a hemocytometer. Blue dye-incorporating cells were scored as being dead. Five hundred cells from randomly chosen fields were counted, and the number of dead cells was counted and expressed as a percentage of the total number of cells counted as shown in Tables 2 to 8 below.

[2] = tested on: HepG2 (human Hepatocellular carcinoma cell line); test: Cell death detection, trypan blue exclusion assay, HepG2; format: cell-based; conditions: HepG2, 5-day treatment
Procedure: as §2, §3

[3] = tested on: HT29 (human colon adenocarcinoma cell line); test: Cell death detection, trypan blue exclusion assay, HT29; format: cell-based; conditions: HT29, 5-day treatment
Procedure: as §2, §3

[4] = tested on: HUH7 (human hepatoma cell line); test: Cell death detection, trypan blue exclusion assay, HUH7; format: cell-based; conditions: Huh-7, 168 h, HUH7, 7-day treatment, read-out: Cell Death (%) at Tested Concentration
Procedure: as §2, §3

[5] = tested on: LNCaP (human prostate adenocarcinoma cell line); test: Cell death detection, trypan blue exclusion assay, LNCaP; format: cell-based; conditions: read-out: Cell Death (%) at Tested Concentration
Procedure: as §2, §3

[6] = tested on: HUH7 (human hepatoma cell line); test: Cell death detection, trypan blue exclusion assay, HUH7, in combination with AZD-6244; format: cell-based; conditions: HUH7, 6-day treatment, compound 0.5 μM
Procedure: as §2, §3

[7] = tested on: patient-derived primary squamous lung 14531 tumor; test: In vivo activity in SCID mouse model with lung cancer, 30-day treatment; conditions: patient-derived primary squamous lung 14531 tumor in mouse, compared to the control
Excerpt: Biological Test 4. In Vivo Activity in […] SCID Mouse Model with Lung Cancer
Biological Test 5. In Vivo Activity in Senograph SCID Mouse Model with Lung Cancer

Sequence of BRAF (P15056 whole entry): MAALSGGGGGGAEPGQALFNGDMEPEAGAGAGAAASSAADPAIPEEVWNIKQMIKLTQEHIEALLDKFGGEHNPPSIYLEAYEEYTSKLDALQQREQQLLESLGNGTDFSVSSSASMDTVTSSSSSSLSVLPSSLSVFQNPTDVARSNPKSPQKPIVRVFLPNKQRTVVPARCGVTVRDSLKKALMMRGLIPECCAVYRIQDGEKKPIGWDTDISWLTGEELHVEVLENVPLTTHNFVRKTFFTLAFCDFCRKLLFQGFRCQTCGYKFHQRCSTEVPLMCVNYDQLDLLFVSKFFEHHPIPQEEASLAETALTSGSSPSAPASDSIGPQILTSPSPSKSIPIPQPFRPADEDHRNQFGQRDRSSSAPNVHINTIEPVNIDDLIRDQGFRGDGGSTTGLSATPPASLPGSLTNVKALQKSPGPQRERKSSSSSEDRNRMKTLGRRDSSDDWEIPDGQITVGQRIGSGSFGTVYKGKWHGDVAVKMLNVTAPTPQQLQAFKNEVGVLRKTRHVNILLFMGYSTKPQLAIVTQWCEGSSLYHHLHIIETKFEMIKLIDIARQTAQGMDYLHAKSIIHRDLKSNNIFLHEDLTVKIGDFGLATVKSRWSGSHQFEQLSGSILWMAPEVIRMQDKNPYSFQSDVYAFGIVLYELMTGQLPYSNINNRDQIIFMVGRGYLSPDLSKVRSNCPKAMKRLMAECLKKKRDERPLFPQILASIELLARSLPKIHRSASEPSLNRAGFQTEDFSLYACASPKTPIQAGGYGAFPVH

Compound	Cell Death (%) at Tested Concentration ([1]; 0.25 uM)	Cell Death (%) at Tested Concentration ([1]; 3.0 uM)	Cell Death (%) at Tested Concentration ([1]; 5.0 uM)	Cell Death (%) at Tested Concentration ([2]; 0.25 uM)	Cell Death (%) at Tested Concentration ([2]; 3.0 uM)	Cell Death (%) at Tested Concentration ([2]; 5.0 uM)	Cell Death (%) at Tested Concentration ([3]; 2.5 uM)	Cell Death (%) at Tested Concentration ([3]; 5.0 uM)	Cell Death (%) at Tested Concentration ([3]; 10 uM)	cytotoxicity at 1 µM ([5]; 72 h, 3-day treatment)	cytotoxicity at 2.5 µM ([5]; 72 h, 3-day treatment)	cytotoxicity at 5 µM ([5]; 72 h, 3-day treatment)	cytotoxicity at 7.5 µM ([5]; 72 h, 3-day treatment)	cytotoxicity at 10 µM ([5]; 72 h, 3-day treatment)	cytotoxicity at 1 µM ([5]; 168 h, 7-day treatment)	cytotoxicity at 2.5 µM ([5]; 168 h, 7-day treatment)	cytotoxicity at 5 µM ([5]; 168 h, 7-day treatment)	cytotoxicity at 7.5 µM ([5]; 168 h, 7-day treatment)	cytotoxicity at 10 µM ([5]; 168 h, 7-day treatment)	Cell Death (%) in combination with AZD-6244 ([6]; AZD-6244 0 μM)	also measured
CNC(=O)c1cc(Oc2ccc(NC(=O)Nc3ccc(Cl)c(S(F)(F)(F)(F)F)c3)c(F)c2)ccn1 [Example 4, 4-[4-({[4-chloro-3-(pentafluoro-λ^6-sulfanyl)phenyl]carbamoyl}amino)-3-fluorophenoxy]-N-methylpyridine-2-carboxamide]	4.6%	67.2%	96.7%	1.9%	4.5%	27.6%	11.6%	13.8%	44.6%	1.8%	1.4%	2.8%	46.8%	94.8%	1.4%	2.7%	69.4%	99%	99%	2.6%	inhibition at 0.1 µM (BRAF): 8%; inhibition at 0.1 µM (FLT3): 51%; inhibition at 0.1 µM (KDR(VEGFR2)): 36%; cytotoxicity at 1 µM [4]: 2.8%; cytotoxicity at 2.5 µM [4]: 3.1%; cytotoxicity at 5 µM [4]: 59.8%; cytotoxicity at 7.5 µM [4]: 91.4%; cytotoxicity at 10 µM [4]: 93.4%; Cell Death (%) in combination with AZD-6244 ([6]; AZD-6244 0.5 μM): 99%; effect in reducing the tumor volume [7]: significant effect in reducing the tumor volume
CNC(=O)c1cc(Oc2ccc(NC(=O)Nc3ccc(S(F)(F)(F)(F)F)cc3)c(F)c2)ccn1 [Example 10, 4-[3-fluoro-4-({[4-(pentafluoro-λ^6-sulfanyl)phenyl]carbamoyl}amino)phenoxy]-N-methylpyridine-2-carboxamide]	3.4%	7.6%	19.5%	2.7%	4.2%	4.8%	18.3%	54.6%	56.7%	1.8%	1.9%	9.4%	11.3%	68.3%	2.2%	2.8%	99%	99%	99%	1.7%	cytotoxicity at 1 µM [4]: 1.9%; cytotoxicity at 2.5 µM [4]: 2.2%; cytotoxicity at 5 µM [4]: 17.2%; cytotoxicity at 7.5 µM [4]: 87.6%; cytotoxicity at 10 µM [4]: 93.7%; Cell Death (%) in combination with AZD-6244 ([6]; AZD-6244 0.5 μM): 94.6%; effect in reducing the tumor volume [7]: significant effect in reducing the tumor volume
CNC(=O)c1cc(Oc2ccc(NC(=O)Nc3ccc(Cl)c(C(F)(F)F)c3)cc2)ccn1 [Sorafenib, reference compound]	3.0%	12.5%	88.2%	2.2%	6.4%	8.2%	11.6%	14.3%	27.6%	1.6%	1.7%	2.3%	2.4%	81.3%	1.6%	1.6%	2.8%	14.7%	99%	1.9%	Cell Death (%) in combination with AZD-6244 ([6]; AZD-6244 0.5 μM): 97.3%; effect in reducing the tumor volume [7]: significant effect in reducing the tumor volume
